Experimental findings from patent US20160244718A1, “REPROGRAMMING OF PLURIPOTENT STEM CELLS FOR IMPROVED CONTROL OF THEIR DIFFERENTIATION PATHWAYS” (ETH ZURICH, priority 2013, published 2016) are described below.

The test system of the test is pPSCs (cESCs d7) and PSCs (WT ESCs). Briefly: Cardiogenic differentiation induced by icariin, Real-Time PCR of cardiogenic markers. As to conditions: 12 days stimulation with icariin (d7 to d7+12), RNA isolated every 4 days, normalized to Gapdh; pPSCs compared with PSCs. The format is cell-based, mouse. As for the experimental part:
Total RNA was isolated from ˜1×10^6 cells per sample using the RNeasy Plus Mini Kit (Qiagen, Hombrechtikon, Switzerland) with RNase-free DNase treatment (Qiagen) following the manufacturer's protocol. For reverse transcription (RT) 2 μg total RNA was reverse transcribed into cDNA in a reaction volume of 20 μl using the iScript™ Advanced cDNA Synthesis Kit (Bio-Rad). Each RT reaction mix contained 4 μl 5× iScript advanced reaction mix and 1 μl iScript advanced reverse transcriptase. The 20 μl reactions were incubated at 42° C. for 30 min, at 85° C. for 5 min, and then held at 4° C. Real-Time PCR reactions were performed on the resulting cDNA using the CFX Connect™ Real-Time PCR Detection System (Bio-Rad), SsoAdvanced™ SYBR® Green Supermix (Bio-Rad) and Hard-Shell® Low-Profile Thin-Wall 96-Well Skirted PCR Plates (Bio-Rad). Briefly, following the RT step, 5 μl of the 100fold-diluted RT reaction was combined with 15 μl mastermix (2× SsoAdvanced™ SYBR® Green Supermix, forward primer, reverse primer and nuclease-free water) in a 20 μl final volume. PCR reactions were incubated at 95° C. for 3 min, followed by 39 cycles of 95° C. for 10 s and 62° C. for 30 s; and were run as duplicates of two independent experiments. […] Results were analyzed using CFX Manager™ software (Bio-Rad) and mRNA expression levels relative to Gapdh were calculated based on the AACt method. […]

Consider `COc1ccc(-c2oc3c(CC=C(C)C)c(O[C@@H]4O[C@H](CO)[C@@H](O)[C@H](O)[C@H]4O)cc(O)c3c(=O)c2O[C@@H]2O[C@@H](C)[C@H](O)[C@@H](O)[C@H]2O)cc1` [icariin], for which the “mRNA expression of all tested cardiogenic markers” value is on record as “induced higher in pPSCs than in PSCs”.
